Reference: patent publication US11957732B2, “Compositions and methods for sensitizing low responsive tumors to cancer therapy” (priority 2016, dated 2024)
Bridge positions count the residues as written; N and C are the ends. Square brackets hold non-standard residues; d marks the D form. Ends that are not written are not given here. hPhe = N[C@@H](CCc1ccccc1)C(=O)O; Cit = NC(=O)NCCC[C@H](N)C(=O)O

Key:
[1] = system: SGC-7901 gastric cancer cells; assay: Growth suppression, apoptosis and IC50 in gastric cancer cells SGC-7901; format: cell-based; details: Homo sapiens, read-out: IC50 (IC50 drift, DOX only or AMP-001/DOX combination); SGC-7901 cells
[2] = system: iCell Cardiomyocytes; assay: cells; details: Homo sapiens, Cardiomyocyte, read-out: IC50 in cardiomyocytes
Method: Cardiomyocytes were derived from this engineered stem cell clone line as follows. Stem cell aggregates were formed from single cells and cultured in suspension in medium containing zebrafish bFGF (basic fibroblast growth factor) and fetal bovine serum. Upon observation of beating cardiac aggregates, cultures were subjected to blasticidin selection at 25 ug/ml to enrich the cardiomyocyte population. Cardiomyocyte aggregate cultures were maintained in Dulbecco's modified Eagle's medium (DMEM) containing 10% fetal bovine serum during cardiomyocyte selection through the duration of the culture prior to cryopreservation. At 30 to 32 days of culture the enriched, stem cell-derived cardiomyocytes were subjected to enzymatic dissociation using 0.5% trypsin to obtain single cell suspensions of purified cardiomyocytes, which were >98% cardiac troponin-T (cTNT) positive. These cells (iCell® Cardiomyocytes) were cryopreserved and stored in liquid nitrogen before delivery to Ionic Transport Assays from Cellular Dynamics International, Madison, WI.
For this study, single vials containing≈4.5×10^6 cardiomyocytes were thawed by immersing the frozen cryo-vial in a 37° C. water bath, transferring thawed cardiomyocytes into a 50 ml tube and diluting them with room temperature plating medium (iCell® Cardiomyocyte Plating Medium (iCPM), Cellular Dynamics International). […]

[3] = system: MGC-803 xenograft; assay: Synergy with doxorubicin in gastric cancer animal model in vivo; set-up: species or system athymic BALB/cA nu/nu female mice; details: 1 mg/kg i.p. every other day for 3 weeks
[4] = system: MGC-803 gastric cancer cells; assay: Growth suppression, apoptosis and IC50 in gastric cancer cells MGC-803; format: cell-based; details: Homo sapiens, MGC-803, read-out: IC50 (IC50 drift, DOX only or AMP-001/DOX combination)
[5] = system: MDA-MB-231 triple negative breast cancer cells; assay: Cell death / apoptosis induction, concentration dependent treatment (FACS); format: cell-based; details: TNBC MDA-MB-231 cells, read-out: cell death effect IC-50
Method: Briefly, MDA-MB-231 cells are seeded in 12-well culture plates and grown to 80% confluency, followed by 72 h treatment with various concentrations of drugs in various combinations; untreated MDA-MB-231 cells are used as control. After the completion of treatment time cells are trypsinized, washed, and analyzed for dead or apoptotic cells by staining with propidium iodide (10 μg/ml) for 15 min, followed by flow cytometry (FACS Aria Ill, BD Biosciences, San Jose, CA, USA) at the Stanford FACS Facility. Data are analyzed by Flow Jo FACS analysis software (Tree Star, Ashland, OR, USA).

[6] = system: MDA-MB-231 tumor cells; assay: Synergistic cell death effect of AMP compounds with chemotherapy (doxorubicin, carboplatin); format: cell-based
Method: MMP2 cleavable AMP-008 was dissolved in culture medium and sonicated for 2 min each and repeated for 3 times. After the cells treated with different concentration of doxorubicin HCl (Bedford Lab, Bedford, OH), AMP compounds alone or combination of doxorubicin and AMP compounds were tested for 17 hrs incubation respectively, the cells were washed three times with PBS (pH 7.4) and incubated with Cy5.5 Annexin-V (BD Bioscience Pharmingen) according to the instructions of the manufacture. The cells were imaged using Nikon Eclipse TE-300 fluorescence microscope and counted under Ex/Em 620-680 nm nm/700-750 nm.

Row | IC50 [1] [µM] | IC50 [4] [µM] | Molecule | IC50 [2] [µM] | extent of tumor regression [3] | IC50 [5] [µM] | synergistic effect when both were administered together ([6]; AMP compound and doxorubicin administered together) | cell death, synergistic (not additive) effect ([6]; pretreatment with AMP compound for 6 hrs followed by 1 μM doxorubicin)
1 | 0.436 | 1.08 | COc1cccc2c1C(=O)c1c(O)c3c(c(O)c1C2=O)C[C@@](O)(C(=O)CO)C[C@@H]3O[C@H]1C[C@H](N)[C@H](O)[C@H](C)O1 [doxorubicin] | 9.6 | reasonable |  |  | 
2 |  |  | AMP-004: human beta-defensin joined to MMP2 cleavable peptide, SEQ ID NO: 003, three disulfide bonds (Ac-EGGGP[Cit]G[hPhe]YLDHYNCVSSGGQCLYSACPIFTKIQGTCYRGKAKCCK; disulfide 15-44, 22-37, 27-45) |  |  | ~5 | Synergistic effect was same | greater than 80%
